Experimental findings from article PMC3260207, “Site-Directed Mutations and the Polymorphic Variant Ala160Thr in the Human Thromboxane Receptor Uncover a Structural Role for Transmembrane Helix 4” (PLoS ONE, 2012) are described below.

What all share (assay): Saturation radioligand binding with [3H] SQ 29,548, membranes
Holding throughout (details): picomoles of TP per milligram of total membrane protein, mean ± S.E

In assay [1] the target is T1, TP A160T mutant (nsSNP variant) (Homo sapiens, UniProt P21731, A160T).
T1 construct: expressed in transfected cells; HEK293T (calcium assays)
T1 sequence (P21731 1-343 A160T): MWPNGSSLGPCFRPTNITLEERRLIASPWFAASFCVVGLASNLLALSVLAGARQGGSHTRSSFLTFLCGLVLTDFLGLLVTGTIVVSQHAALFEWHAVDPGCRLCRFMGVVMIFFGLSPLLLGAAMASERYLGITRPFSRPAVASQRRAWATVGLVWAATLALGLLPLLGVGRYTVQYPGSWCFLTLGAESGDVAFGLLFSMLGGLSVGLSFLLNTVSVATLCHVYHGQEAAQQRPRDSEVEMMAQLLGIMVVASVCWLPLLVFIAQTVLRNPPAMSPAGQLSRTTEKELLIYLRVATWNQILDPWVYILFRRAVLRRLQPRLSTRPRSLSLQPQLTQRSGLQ
As to the method:
(§1) Amino acid substitutions were introduced into the synthetic TPα gene carried by the expression vector pMT4 as described previously, [29]. DNA sequences of all the mutated genes were verified by automated DNA sequencing. To minimize variations in transfection efficiency, the total amount transfected DNA was kept constant in all cases at 1 µg of DNA per 7×10^5 cells. The wild type TP or mutant genes were expressed in COS-1 cells using a DEAE-dextran based transient transfection method, [29], and in HEK293T cells using lipofectamine 2000 (Invitrogen). Except unless specified, the membranes prepared from COS-1 cells were used for radioligand binding assays and immunoblots. For intracellular calcium determination assays and immunofluorescence imaging, HEK293T cells were used. For transient transfections of HEK293T cells using the plasmid pMT4, lipofectamine 2000 (Invitrogen) mediated transfection was used as described by the manufacturer. Membranes were prepared using Buffers A and B and as described previously, [29]. The protein concentration in the resuspended membrane pellet was determined using a modified DC protein assay kit from Bio-Rad Laboratories (Hercules, CA).
(§2) These were carried out in Buffer C for 60 min at room temperature, using 2 to 20 µg of membrane protein and different concentrations of [^3H] […] Binding of [^3H] […] Competition binding assays were performed using 4 nM [^3H] […] Binding was terminated by filtering under vacuum on GF/A filters (Millipore). Filter-bound radioactivity was measured using a liquid scintillation counter. Equilibrium dissociation constants (Kd) were determined from saturation isotherms using PRISM software version 5.0 (GraphPad Software Inc, San Diego, CA, USA). The Ki values were calculated from the IC50, using the equation of Cheng and Prusoff by PRISM software version 5.0.

The next assay has as its target T2, TP F114A mutant (Homo sapiens, UniProt P21731, F114A).
T2 construct: expressed in transfected cells; HEK293T (calcium assays)
T2 sequence (P21731 1-343 F114A): T1 sequence (P21731 1-343 A160T) with F114A, T160A
As to the method:
as §1, §2

A further assay deals with T3, TP V110A mutant (Homo sapiens, UniProt P21731, V110A).
T3 construct: expressed in transfected cells; HEK293T (calcium assays)
T3 sequence (P21731 1-343 V110A): T1 sequence (P21731 1-343 A160T) with V110A, T160A
As to the method: as §1, §2

For a further assay, the target named is T4, TP A160V mutant (Homo sapiens, UniProt P21731, A160V).
T4 construct: expressed in transfected cells; HEK293T (calcium assays)
T4 sequence (P21731 1-343 A160V): T1 sequence (P21731 1-343 A160T) with T160V
As to the method:
as §1, §2

Assay [2] addresses T5, WT-TP (wild type human thromboxane A2 receptor TPα) (Homo sapiens, UniProt P21731).
T5 construct: expressed in transfected cells; HEK293T (calcium assays)
T5 sequence (P21731 1-343): T1 sequence (P21731 1-343 A160T) with T160A
As to the method: as §1, §2

The target in a further assay is T6, TP F107A mutant (Homo sapiens, UniProt P21731, F107A).
T6 construct: expressed in transfected cells; HEK293T (calcium assays)
T6 sequence (P21731 1-343 F107A): T1 sequence (P21731 1-343 A160T) with F107A, T160A
As to the method: as §1, §2

The structures appear in SMILES notation. Residue numbers refer to the chain shown, from its start.

For `O=C(O)CCC/C=C\C[C@@H]1[C@H](CNNC(=O)Nc2ccccc2)[C@H]2CC[C@@H]1O2` [SQ 29,548], the “Bmax, binding maximum of the ligand SQ 29,548 for the receptor” value in assay [1] stood at 1.8 ± 0.4 pmol/mg; on TP F114A mutant, 1.6 ± 0.3 pmol/mg; at TP V110A mutant it was 1.8 ± 0.3 pmol/mg; at TP A160V mutant it was 1.9 ± 0.3 pmol/mg; in assay [2], 3.8 ± 0.3 pmol/mg; on TP F107A mutant it was 1.8 ± 0.2 pmol/mg.
